Like-named read-outs stand apart in the source and are kept apart here.
Experiments:
DNA-PK = target: T1, DNA-PK (Homo sapiens, UniProt P78527); assay: DNA-PK Assay for Biochemical Enzymatic Inhibition (ADP Glo Kinase assay); conditions: DNA-PK enzyme, Table 1
T1 construct: purchased Invitrogen PR9107A
Protocol: A biochemical assay was performed to identify IC50 values against DNA-PK activity in a two-step reaction with a kinase reaction followed by ADP Glo™ Kinase assay Kit (Promega V9102).
Three-fold serial dilutions of compounds in DMSO were prepared in kinase assay buffer (50 mM HEPES pH 7.5, 20 mM MgCl2, 100 mM KCl, 50 μM DTT, 10 μg/ml calf thymus DNA, 0.01% Tween 20). Kinase assay buffer was used to prepare compound treatments to 0.02% DMSO (dimethyl sulphoxide) content. DMSO controls were prepared to produce a maximum and minimum luminescence signal for normalization. Substrate (Anaspec, AS-60210-5) and ATP (Promega V9102) and ATP mix was prepared by dilution in kinase assay buffer for 434.4 μM and 64.4 μM final assay concentrations, respectively. Compounds and control were added to 25 ng DNA-PK enzyme (Invitrogen, PR9107A) diluted in kinase buffer in assay plate (Corning 267459) and incubated for 15 minutes at room temperature prior to addition of substrate and ATP mix.
Throughout the assay, each time a reagent was added to the microplate, it was centrifuged for 1 minute at 1300 rcf. All reagents were added, and incubations carried out at room temperature. The reaction was then incubated for 60 minutes. ADP-ATP standards at 0, 4, 10, 40, 80, and 100% ADP (prepared as specified in the ADP Glo™ Kinase assay kit) were also added to the microplate at a volume equal to the total kinase reaction. The ADP Glo™ Kinase Assay kit was then used to quantify DNA-PK activity: following the 60-minute incubation, a 1:1 volume of ADP Glo reagent was added to all wells, then following a further 45-minute incubation, a 1:1 volume of Kinase Detection Reagent was added to all wells. After this two-step assay, plates were incubated in a Synergy-Neo2 plate reader for 30 minutes with gentle shaking, followed by endpoint luminescent read Luminescence data was normalized by subtracting the background signal and expressing all background-adjusted values as a percentage of the average maximum signal. The data was then expressed as percent inhibition by subtracting from 100% (i.e. maximum luminescent signal will be 0% inhibition) and the resulting data plotted against ten concentration points on a logarithmic scale, using GraphPad Prism. Non-linear regression analysis was performed on each concentration response curve and the log [inhibitor] vs response—variable slope (four parameters) equation was selected to generate IC50 values.

[1] = target: T2, DNA-PK phosphorylation at Serine 2056 (Homo sapiens, UniProt P78527); assay: Cellular Assay for Inhibition of DNA-PK Phosphorylation at Serine 2056 in FaDu cells (sandwich ELISA, neocarzinostatin); assay type: cell-based; conditions: pSer2056 DNA-PK, neocarzinostatin 1 μg/mL, Table 1
T2 construct: FaDu cells were purchased from ATCC; host or cells: FaDu
In short: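 pSer2056 and total DNA-PK were measured by sandwich ELISA in BCA-normalised FaDu lysates. Cells had 1 h compound exposure (0.3% DMSO), then 2 h with 1 μg/mL final neocarzinostatin. IC50 was fitted (variable slope) to % inhibition scaled against NCS-stimulated and DMSO-only controls.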

[2] = test system: pDNA-PK induction in HCT116 tumour spheroids; assay: Multicellular tumour spheroid + radiation, pDNA-PK (ser2056) inhibition, immunohistochemical endpoint, HCT116; assay type: cell-based; conditions: Homo sapiens, 20 Gy, 20% O2
Protocol: Multicellular tumour spheroids determination of compound inhibition of pDNA-PK induction following radiation. Tumour spheroids were grown to approximately 0.5 mm in diameter and irradiated with 20 Gy in combination with inhibitor test compounds to determine their potency. Inhibitor concentration for 50% reduction in pDNA-PK induction (IC50) was determined via immunohistochemical staining in spheroid cryosections taken 2 hours following radiation.
(§1) Spheroid+radiation pDNA-PK. Radiation: 20 Gy. Drug: serial dilution 5 or 10 μM down to 3.5 nM (11 wells). Spheroids: 3-6 spheroids per well (300-500 μm diameter). 20% 02 and 5% CO2. 96 well plate format.
Protocol: pre-incubate 1 hours with drug, irradiate with 20 Gy, post-incubate 2 hours with drug, freeze and cryosection ×3 replicates.
Endpoint: fluorescent immunostin pDNA-PK ser2056 and image on microscope.
Analysis: determine EC50 concentration that decreases pDNA-PK induction by 50% after radiation.
Multicellular tumour spheroids determination of compound inhibition of pDNA-PK induction following radiation. Tumour spheroids were grown to approximately 0.5 mm in diameter and irradiated with 20 Gy in combination with inhibitor test compounds to determine their potency. Inhibitor concentration for 50% reduction in pDNA-PK induction (IC50) was determined via immunohistochemical staining in spheroid cryosections taken 2 hours following radiation. For cell survival endpoint 8 Gy radiation was used and 3 hours following radiation spheroids were dissociated, counted and plated for colony forming endpoint.
as §1, with “format. Endpoint: fluorescent immunostain pDNA-PK ser2056 and image on microscope. Analysis: determine EC50 concentrations that decreases pDNA-PK induction by 50% after irradiation.” for “format.”
Multicellular tumour spheroids were used to determine potency of test compounds in a 3D tissue environment using inhibition of pDNA-PK induction following radiation or cell survival as the endpoint. For the pDNA-PK endpoint HCT116 or FaDU tumour spheroids were grown to approximately 0.5 mm in diameter and irradiated with 20 Gy in combination with inhibitor test compounds to determine their potency. Experiments were carried out in 96 well plates containing 0.7 mls of MEM media containing 10% FBS and 10 mM glucose under 20% O2 & 5% CO2 at 37° C. Following dilution of compounds 1:1000 from DMSO stocks, compounds were serially diluted from 10 μM down to 3.5 nM and 5-10 spheroids added. 96 well plates were constantly stirred to avoid spheroids settling during the course of the experiment. The inhibitor concentration for 50% reduction in pDNA-PK induction (EC50) was determined via immunohistochemical staining in spheroid cryosections taken 2 hours following radiation using anti-pDNA-PK (ser 2056) and fixed immediately in formalin following sectioning. For cell survival endpoint 8 Gy radiation was used and, 3 hours following radiation, spheroids were dissociated, counted and plated for colony forming endpoint. Data presented in the table compound potency as EC50 [μM].

[3] = HCT-116, 2 hours following radiation, Example 9 Study 2, read-out: Spheroid Cell line: HCT116 Immunohistochemical endpoint pDNA-PK inhibition EC50
[4] = HCT-116, Spheroid, Cell Line: HCT115 (so in the source), 2 hours following radiation, Example 7, read-out: EC50, Immunohistochemical endpoint, pDNA-PK inhibition
[5] = HCT-116, 2 h, spheroids, Example 8, read-out: Cell line: HCT116 Immunohistochemical endpoint pDNA-PK inhibition EC50

SMILES	IC50 (DNA-PK) [nM]	IC50 [1] [nM]	EC50 [2, 3] [nM]	EC50 [2, 4] [nM]	EC50 [2, 5] [nM]
O=C(COc1cnc(N[C@H]2CC[C@@H](Oc3nc(N4CCOCC4)cc4ncccc34)CC2)nc1)N1CCCC1 [Compound 74, 2-((2-(((1s,4s)-4-((7-Morpholino-1,6-naphthyridin-5-yl)oxy)cyclohexyl)amino)pyrimidin-5-yl)oxy)-1-(pyrrolidin-1-yl)ethan-1-one]	0.5 to 1	100 to 1000	1000 to 10000	1000 to 10000	–
c1cnc2cc(N3CCOCC3)nc(O[C@H]3CC[C@@H](Nc4ncc(OCc5ncco5)cn4)CC3)c2c1 [Compound 78, N-((1s,4s)-4-((7-Morpholino-1,6-naphthyridin-5-yl)oxy)cyclohexyl)-5-(oxazol-2-ylmethoxy)pyrimidin-2-amine]	0.5 to 1	100 to 1000	1000 to 10000	1000 to 10000	–
Cn1ccnc1COc1cnc(N[C@H]2CC[C@@H](Oc3nc(N4CCOCC4)cc4ncccc34)CC2)nc1 [Compound 79, 5-((1-methyl-1H-imidazol-2-yl)methoxy)-N-((1s,4s)-4-((7-morpholino-1,6-naphthyridin-5-yl)oxy)cyclohexyl)pyrimidin-2-amine]	0.5 to 1	100 to 1000	1000 to 10000	1000 to 10000	–
CN(C)CCOc1cnc(C(=O)N[C@H]2CC[C@@H](Oc3nc(N4CCOCC4)cc4ncccc34)CC2)nc1 [Compound 126, 5-(2-(dimethylamino)ethoxy)-N-((1s,4s)-4-((7-morpholino-1,6-naphthyridin-5-yl)oxy)cyclohexyl)pyrimidine-2-carboxamide]	1 to 10	1000 to 10000	10000 to 100000	10000 to 100000	–
O=C(Nc1ccc(F)cc1)N[C@H]1CC[C@@H](Oc2nc(N3CCOCC3)cc3ncccc23)CC1 [Compound 151, 1-(4-Fluorophenyl)-3-((1s,4s)-4-((7-morpholino-1,6-naphthyridin-5-yl)oxy)cyclohexyl)urea]	1 to 10	100 to 1000	1000 to 10000	1000 to 10000	1000 to 10000
COC(=O)c1cnc2cc(N3CCOCC3)nc(O[C@H]3CC[C@@H](n4ccnc4)CC3)c2c1 [Compound 164, methyl 5-(((1s,4s)-4-(1H-imidazol-1-yl)cyclohexyl)oxy)-7-morpholino-1,6-naphthyridine-3-carboxylate]	1 to 10	1000 to 10000	1000 to 10000	1000 to 10000	1000 to 10000
CCCS(=O)(=O)NC(=O)c1cnc2cc(N3CCOCC3)nc(O[C@H]3CC[C@@H](n4ccnc4)CC3)c2c1 [Compound 173, 5-(((1s,4s)-4-(1H-imidazol-1-yl)cyclohexyl)oxy)-7-morpholino-N-(propylsulfonyl)-1,6-naphthyridine-3-carboxamide]	1 to 10	10000 to 30000	10000 to 100000	10000 to 100000	10000 to 100000

The next lines start with the values.

IC50 (DNA-PK) [nM]	IC50 [1] [nM]	EC50 [2, 3] [nM]	EC50 [2, 4] [nM]	EC50 [2, 5] [nM]	SMILES
< 0.5	100 to 1000	500 to 1000	500 to 1000	–	O=C(COc1cnc(N[C@H]2CC[C@@H](Oc3nc(N4CCOCC4)cc4ncccc34)CC2)nc1)N1CC(O)C1 [Compound 77, 1-(3-Hydroxyazetidin-1-yl)-2-((2-(((1s,4s)-4-((7-morpholino-1,6-naphthyridin-5-yl)oxy)cyclohexyl)amino)pyrimidin-5-yl)oxy)ethan-1-one]
10 to 150	1000 to 10000	10000 to 100000	10000 to 100000	–	CCOC(=O)c1cnc(NC2CCOCC2)nc1N[C@H]1CC[C@@H](Oc2nc(N3CCOCC3)cc3ncccc23)CC1 [Compound 93, Ethyl 4-(((1s,4s)-4-((7-morpholino-1,6-naphthyridin-5-yl)oxy)cyclohexyl)amino)-2-((tetrahydro-2H-pyran-4-yl)amino)pyrimidine-5-carboxylate]
10 to 150	100 to 1000	1000 to 10000	1000 to 10000	–	CCOC(=O)c1cnc(N[C@H]2CC[C@@H](Oc3nc(N4CCOCC4)cc4ncccc34)CC2)nc1NC1CCOCC1 [Compound 94, Ethyl 2-(((1s,4s)-4-((7-morpholino-1,6-naphthyridin-5-yl)oxy)cyclohexyl)amino)-4-((tetrahydro-2H-pyran-4-yl)amino)pyrimidine-5-carboxylate]
1 to 10	100 to 1000	10000 to 100000	10000 to 100000	10000 to 100000	CN(C)C(=O)N[C@H]1CC[C@@H](Oc2nc(N3CCOCC3)cc3ncccc23)CC1 [Compound 153, 1,1-Dimethyl-3-((1s,4s)-4-((7-morpholino-1,6-naphthyridin-5-yl)oxy)cyclohexyl)urea]
1 to 10	100 to 1000	1000 to 10000	1000 to 10000	1000 to 10000	O=C(Nc1ccccn1)[C@H]1CC[C@@H](Oc2nc(N3CCOCC3)cc3ncccc23)CC1 [Compound 154c, (1S,4S)-4-((7-morpholino-1,6-naphthyridin-5-yl)oxy)-N-(pyridin-2-yl)cyclohexane-1-carboxamide]
1 to 10	10000 to 30000	10000 to 100000	10000 to 100000	10000 to 100000	O=C(NS(=O)(=O)C1CC1)c1cnc2cc(N3CCOCC3)nc(O[C@H]3CC[C@@H](n4ccnc4)CC3)c2c1 [Compound 174, 5-(((1s,4s)-4-(1H-imidazol-1-yl)cyclohexyl)oxy)-N-(cyclopropylsulfonyl)-7-morpholino-1,6-naphthyridine-3-carboxamide]
1 to 10	1000 to 10000	10000 to 100000	10000 to 100000	1000 to 10000	CCOC(=O)c1cnc2cc(N3CCOCC3)nc(O[C@H]3CC[C@@H](Nc4ncc(OCC(=O)N(C)C)cn4)CC3)c2c1 [Compound 179, ethyl 5-(((1s,4s)-4-((5-(2-(dimethylamino)-2-oxoethoxy)pyrimidin-2-yl)amino)cyclohexyl)oxy)-7-morpholino-1,6-naphthyridine-3-carboxylate]
